What was measured:
Type in all cases: biochemical
ERAP1 [1] = target: T1, ERAP1 (Homo sapiens, UniProt Q9NZ08); assay: fluorogenic Leu-AMC hydrolysis, dose-response
T1 construct: recombinant; Hi5 insect cells, baculovirus; Ni-NTA purified

ERAP2 = target: T2, ERAP2 (Homo sapiens, UniProt Q6P179); assay: fluorogenic Arg-AMC hydrolysis, dose-response
T2 construct: recombinant; Hi5 insect cells, baculovirus; Ni-NTA purified

[2] = target: T3, IRAP (insulin-regulated aminopeptidase) (Homo sapiens, UniProt Q9UIQ6); assay: fluorogenic Leu-AMC hydrolysis, dose-response
T3 construct: gene LNPEP; extracellular (luminal) aminopeptidase domain; Rhodopsin 1D4 tag (given as N-terminal); secreted from stably transfected HEK 293S GnTI(-) cells; PDB ids are the docking structures
T3 sequence (Q9UIQ6 132-1025 limits assumed): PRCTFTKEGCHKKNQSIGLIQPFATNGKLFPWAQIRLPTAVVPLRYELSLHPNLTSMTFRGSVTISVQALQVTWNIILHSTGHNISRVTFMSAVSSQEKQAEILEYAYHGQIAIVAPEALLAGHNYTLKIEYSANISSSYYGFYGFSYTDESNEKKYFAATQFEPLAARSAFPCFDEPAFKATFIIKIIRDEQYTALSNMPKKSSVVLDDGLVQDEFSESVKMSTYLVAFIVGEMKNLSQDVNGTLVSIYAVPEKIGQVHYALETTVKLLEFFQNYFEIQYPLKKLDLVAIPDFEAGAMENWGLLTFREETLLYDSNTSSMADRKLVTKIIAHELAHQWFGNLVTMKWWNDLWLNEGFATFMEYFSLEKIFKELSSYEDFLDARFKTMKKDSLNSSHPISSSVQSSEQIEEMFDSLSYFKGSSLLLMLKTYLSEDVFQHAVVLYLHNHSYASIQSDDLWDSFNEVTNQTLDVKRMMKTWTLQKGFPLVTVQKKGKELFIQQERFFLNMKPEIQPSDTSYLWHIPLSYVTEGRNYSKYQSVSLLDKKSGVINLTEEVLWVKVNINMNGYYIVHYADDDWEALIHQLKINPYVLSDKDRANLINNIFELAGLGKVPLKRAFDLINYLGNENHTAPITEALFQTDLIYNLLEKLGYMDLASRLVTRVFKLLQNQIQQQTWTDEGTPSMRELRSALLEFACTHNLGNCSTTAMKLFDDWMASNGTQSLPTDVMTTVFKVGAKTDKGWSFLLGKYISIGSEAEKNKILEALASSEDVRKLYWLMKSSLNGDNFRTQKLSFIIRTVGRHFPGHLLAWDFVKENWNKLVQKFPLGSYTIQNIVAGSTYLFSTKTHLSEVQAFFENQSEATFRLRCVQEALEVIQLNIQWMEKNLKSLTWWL

ERAP1 [3] = target: T1, ERAP1; assay: fluorogenic Leu-AMC hydrolysis, dose-response; remark: listed apart in the source
[4] = target: T3, IRAP (insulin-regulated aminopeptidase); assay: Michaelis-Menten, fluorescence; conditions: pH 7.0, 1 nM enzyme, no inhibitor
[5] = target: T3, IRAP (insulin-regulated aminopeptidase); assay: HPLC vasopressin trimming, dose-response

T2 sequence (Q6P179 whole entry): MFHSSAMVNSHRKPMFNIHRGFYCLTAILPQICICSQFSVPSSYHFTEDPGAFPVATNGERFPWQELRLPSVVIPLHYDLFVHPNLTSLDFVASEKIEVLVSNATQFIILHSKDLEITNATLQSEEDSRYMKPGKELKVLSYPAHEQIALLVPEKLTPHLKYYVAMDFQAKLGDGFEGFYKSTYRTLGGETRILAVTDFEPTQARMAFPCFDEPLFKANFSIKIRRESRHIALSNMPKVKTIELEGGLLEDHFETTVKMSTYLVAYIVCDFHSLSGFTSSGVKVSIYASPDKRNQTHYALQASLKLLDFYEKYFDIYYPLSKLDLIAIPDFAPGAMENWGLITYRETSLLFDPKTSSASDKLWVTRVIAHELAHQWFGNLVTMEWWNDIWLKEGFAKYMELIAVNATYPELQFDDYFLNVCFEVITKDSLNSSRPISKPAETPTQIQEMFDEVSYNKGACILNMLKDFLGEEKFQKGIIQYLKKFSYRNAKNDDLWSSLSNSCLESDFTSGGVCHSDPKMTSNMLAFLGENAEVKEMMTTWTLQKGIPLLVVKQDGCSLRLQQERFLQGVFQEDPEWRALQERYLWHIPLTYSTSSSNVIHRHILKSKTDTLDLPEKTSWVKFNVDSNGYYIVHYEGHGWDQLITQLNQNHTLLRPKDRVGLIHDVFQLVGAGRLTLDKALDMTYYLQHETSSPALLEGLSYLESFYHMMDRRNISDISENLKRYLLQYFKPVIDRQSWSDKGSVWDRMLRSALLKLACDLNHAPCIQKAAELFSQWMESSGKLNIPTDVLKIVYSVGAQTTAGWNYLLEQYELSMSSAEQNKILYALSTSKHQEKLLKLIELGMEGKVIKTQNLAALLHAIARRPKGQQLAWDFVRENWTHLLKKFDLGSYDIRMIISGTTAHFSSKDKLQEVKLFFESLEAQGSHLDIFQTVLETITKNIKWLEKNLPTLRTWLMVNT
T1 sequence (Q9NZ08 whole entry): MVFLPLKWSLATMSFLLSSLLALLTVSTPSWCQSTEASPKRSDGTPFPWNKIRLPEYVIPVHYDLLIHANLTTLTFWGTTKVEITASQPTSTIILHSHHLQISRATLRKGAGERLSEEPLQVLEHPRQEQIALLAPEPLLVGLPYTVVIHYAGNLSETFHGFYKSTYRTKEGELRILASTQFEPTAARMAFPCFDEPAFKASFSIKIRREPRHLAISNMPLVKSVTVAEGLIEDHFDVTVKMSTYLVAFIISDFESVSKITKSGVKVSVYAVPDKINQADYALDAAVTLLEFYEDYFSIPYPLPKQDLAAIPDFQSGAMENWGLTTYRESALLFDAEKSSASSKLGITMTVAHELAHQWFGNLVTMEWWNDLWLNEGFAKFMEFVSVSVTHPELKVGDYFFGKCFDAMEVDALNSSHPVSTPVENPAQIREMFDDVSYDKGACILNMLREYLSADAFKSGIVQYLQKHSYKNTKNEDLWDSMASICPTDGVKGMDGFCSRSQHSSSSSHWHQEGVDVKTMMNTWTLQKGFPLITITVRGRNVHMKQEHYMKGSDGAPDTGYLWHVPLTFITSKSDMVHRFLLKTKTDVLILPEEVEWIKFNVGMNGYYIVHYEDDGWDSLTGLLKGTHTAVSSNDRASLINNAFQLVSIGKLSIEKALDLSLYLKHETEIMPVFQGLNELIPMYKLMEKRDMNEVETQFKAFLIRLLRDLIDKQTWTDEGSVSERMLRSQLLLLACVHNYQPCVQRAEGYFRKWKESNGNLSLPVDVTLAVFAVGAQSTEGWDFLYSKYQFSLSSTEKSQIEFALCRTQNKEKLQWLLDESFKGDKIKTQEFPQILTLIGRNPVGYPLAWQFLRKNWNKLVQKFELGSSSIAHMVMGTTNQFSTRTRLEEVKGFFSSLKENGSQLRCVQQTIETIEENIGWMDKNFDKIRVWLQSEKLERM

Row | EC50 (ERAP1 [1]) [µM] | IC50 (ERAP2) [µM] | IC50 [2] [µM] | IC50 (ERAP1 [3]) [µM] | IC50 [5] [µM] | Structure (SMILES) | KM [4]
1 | ~450 | 1300 | 125 |  |  | NCc1cc(C(=O)NC(Cc2ccccc2Cl)c2ccccc2)n[nH]1 (racemic) [compound 11] | 
2 |  | 3600 | 208 | > 300 |  | Cc1ccc(CC(C)(CO)NC(=O)c2cc(-c3c[nH]c4ccccc34)[nH]n2)cc1 (racemic) [compound 17] | 
3 |  |  |  |  |  | Cc1cc(=O)oc2cc(NC(=O)[C@@H](N)CC(C)C)ccc12 [Leu-AMC] | Michaelis–Menten analysis of (A, B) Leu-AMC substrate digestion by IRAP
4 |  | > 10000 | 30 | > 300 |  | O=C(O)c1cc(CN2CCCCC2CCCc2ccccc2)[nH]n1 (racemic) [compound 8] | 
5 |  |  |  |  | 280 | O=C(O)C1(CF)CCN(Cc2cc3c(Br)cc(F)cc3[nH]2)C1 (racemic) [compound 2] | 

Reference: paper PMC12059914, “Discovery of Novel Allosteric Inhibitor Hits for Insulin-Regulated Aminopeptidase Provides Insights on Enzymatic Mechanism” (ACS Omega, 2025)
